# Test results taken from US20190031717A1, “MULTI-FUNCTIONAL FUSION POLYPEPTIDE, PREPARATION METHOD THEREOF, AND APPLICATION OF SAME” (NANJING ANJI BIOLOGICAL TECHNOLOGY CO., LTD, priority 2016, published 2019).
# What was measured:
# [1] = system: A549 cells induced by TGF-β1 (lung fibrosis model); assay: Hydroxyproline content in TGF-β1-induced A549 pulmonary fibrosis cell model; assay type: cell-based, human; conditions: for Hydroxyproline Content Inhibition Rate in the Pulmonary Fibrosis Model: 48 hours
# Experimental: Human non-small cell lung cancer cells A549 were cultured in DMEM medium containing 10% (volume fraction) fetal bovine serum, cultured in a carbon dioxide incubator with a volume fraction of 5% at 37° C., and changed once every other day, depending on cell density. A549 cells in logarithmic growth phase were digested with 0.25% trypsin to prepare a cell suspension, adjusted to a cell concentration of 1×10^9 cells/L, and seeded at a density of 4×10^5 cells/cm2 in a cell culture dish of 90 cm^2. The cells were randomly divided into two groups: (1) control group: cultured in DMEM containing 10% (volume fraction) fetal bovine serum; (2) model group: containing 10% (volume fraction) fetal bovine serum, transforming growth factor (TGF-β1, final concentration 5 μg/L) was cultured in DMEM. The cells were cultured at 37° C. in a volumetric 5% carbon dioxide incubator, and changed every other day, depending on the cell density. Cell morphology was observed daily using an inverted microscope to determine when the model was established. When A549 cells are changed from the cobblestone shape of the original epithelial cells to the long spindle shape of the interstitial cells, the modeling is successfully established.
# After 48 hours of addition of the polypeptides, the cells of the control group, the model group, and the administration group were collected for subsequent measurement of molecular markers related to pulmonary fibrosis.
# Hydroxyproline accounts for 13.4% of collagen, so the content of hydroxyproline can reflect the accumulation of collagen during pulmonary fibrosis, which in turn reflects the degree of pulmonary fibrosis.
# Prepare citric acid buffer: 120 g of sodium citrate, 12 mL of glacial acetic acid, 46 g of citric acid, 34 g of sodium hydroxide, dissolved in distilled water, adjust the pH to 6.0, and then dilute to 1000 mL.
# Prepare 0.05 mol/L chloramine T solution: weigh 7.05 g of chloramine T, dissolve in 100 mL of distilled water, then add 150 mL of ethylene glycol, and add 250 mL of citric acid buffer to mix well.
# Prepare p-dimethylaminobenzaldehyde: Reagent A: Take 20 mL of absolute ethanol, slowly add 2.74 mL of concentrated sulfuric acid; Reagent B: Take 12.0 g of p-dimethylaminobenzaldehyde, slowly add 40 mL of absolute ethanol. Heat in a water bath to completely dissolve and cool to room temperature, then slowly add the A solution to B and mix well.
# Prepare a […] perchloric acid solution: take 27 mL of perchloric acid and dilute to 100 mL with distilled water.
# The specific steps are as follows: collect the cells in a 1 mL water solution and lyse the cells using a homogenizer; adjust the pH to neutral, dilute to 3 mL, add activated carbon to centrifuge; take 1 mL supernatant, add 1 mL solution 1 (1 mL citrate buffer and 1 mL 0.05 mol/L chloramine T solution), stand for 10 minutes, add 1 mL of perchloric acid, stand for 5 minutes, add 1 mL of p-dimethylaminobenzaldehyde reagent, keep in 60° C. water bath for 15 minutes; centrifuge at 3500 rpm/min for 10 minutes, take the supernatant to measure the absorbance value at a wavelength of 550 nm.
# The test was repeated 3 times independently, and the inhibition rate was calculated as follows: inhibition rate (%)=(1−experimental group absorbance/model group absorbance)×100%.
# Mycoplasma pneumoniae = assay: Mouse pneumonia model, mycoplasma; assay type: in vivo, BALB/C mice; set-up: concentration or dose not given beside the values; conditions: mean ± SD
# Experimental: (§1) The mouse pneumonia model was successfully established by the nose-drop method. To build the mouse pneumonia model, BALB/C mice with a body mass of 16-22 g were selected and anesthetized pneumonia chain was prepared after anesthesia with ether on day 0, day 1, and day 2. Staphylococcal fluid, adenovirus concentrate, Mycoplasma pneumoniae, Chlamydia pneumoniae, protozoa, and pneumonia fungi were slowly dripped into the nasal cavity of the mice, so that they enter the tracheobronchial. During the operation process, care was exercised to prevent bacterial fluid from flowing into the esophagus, which leads to inactivation the bacterial fluid. After successful model establishment, the polypeptides of the present invention were administered, and the results were shown in Table 5. […] The results were expressed in average value±standard deviation.
# protozoa = assay: Mouse pneumonia model, protozoal; assay type: in vivo, BALB/C mice; set-up: concentration or dose not given beside the values; conditions: mean ± SD
# Experimental: as §1
# pneumonia fungi = assay: Mouse pneumonia model, fungal; assay type: in vivo, BALB/C mice; set-up: concentration or dose not given beside the values; conditions: mean ± SD
# Experimental: as §1
# Adenocarcinoma = assay: MTT assay, lung cancer tumor cells; assay type: cell-based, human; set-up: concentration or dose not given beside the values; conditions: 48 h, mean ± SD
# Experimental: (§2) The inhibition of the growth of human lung cancer tumor cells by the polypeptide of the present invention was examined by MTT assay. The lung cancer tumor cells were cultured in a 37° C., 5% (volume fraction) CO2 incubator to a density of 90% or more, and collected by trypsinization. The cells were resuspended in the culture medium and counted under a microscope to adjust the cell concentration to 2.0×10^4 cells/mL, the cell suspension was inoculated into a 96-well plate at 100 μL per well, and cultured overnight at 37° C. in a 5% (volume fraction) CO2 incubator. After the cells were completely adhered, the polypeptide of the present invention was added as a drug-administered group, and a culture solution containing no drug was used as a blank control group, and the culture solution was diluted to each predetermined concentration. Each dilution was separately added to a 96-well plate at 100 μL per well and incubated for 48 h at 37° C. in a 5% (volume fraction) CO2 incubator. 20 μL of 5 mg/mL MTT was added to each well of a 96-well plate, and incubation was continued for 4 hours. The medium was aspirated, and the cells were dissolved in 100 μL of DMSO per well. The absorbance was measured by a microplate reader at a detection wavelength of 570 nm and a reference wavelength of 630 nm, and the growth inhibition rate was calculated as follows: tumor growth inhibition rate (%)=(1−administered group absorbance value/unadministered group absorbance value)×100%, and the experiment was repeated 3 times independently. The results obtained by the test were expressed as mean±standard deviation. The results in Table 6 indicate that the polypeptides of the present invention have a good inhibitory effect on proliferation of a variety of human lung cancer tumors (FIG. 5).
# Adenosquamous carcinoma = assay: MTT assay, lung cancer tumor cells; assay type: cell-based, human; set-up: concentration or dose not given beside the values; conditions: 48 h, mean ± SD
# Experimental: as §2
# Large cell lung cancer = assay: MTT assay, lung cancer tumor cells; assay type: cell-based, human; set-up: concentration or dose not given beside the values; conditions: 48 h, mean ± SD
# Experimental: as §2
# [2] = system: Non-small cell lung cancer; assay: MTT assay, lung cancer tumor cells; assay type: cell-based, human; set-up: concentration or dose not given beside the values; conditions: 48 h, mean ± SD
# Experimental: as §2
# Small Cell Lung Cancer = assay: MTT assay, lung cancer tumor cells; assay type: cell-based, human; set-up: concentration or dose not given beside the values; conditions: 48 h, mean ± SD
# Experimental: as §2
# Squamous cell carcinoma = assay: MTT assay, lung cancer tumor cells; assay type: cell-based, human; set-up: concentration or dose not given beside the values; conditions: 48 h, mean ± SD
# Experimental: as §2
Substance,"effect on content of hydroxyproline in lung fibrosis model cells (FIG. 1-3), in words [1]",Hydroxyproline Content Inhibition Rate in the Pulmonary Fibrosis Model ([1]; 4 uM) [%],Hydroxyproline Content Inhibition Rate in the Pulmonary Fibrosis Model ([1]; 8 uM) [%],Inhibitory Effects on Various Pulmonary Infections (Mycoplasma pneumoniae) [%],Inhibitory Effects on Various Pulmonary Infections (protozoa) [%],Inhibitory Effects on Various Pulmonary Infections (pneumonia fungi) [%],"tumor growth inhibition rate, MTT Assay (Adenocarcinoma) [%]","tumor growth inhibition rate, MTT Assay (Adenosquamous carcinoma) [%]","tumor growth inhibition rate, MTT Assay (Large cell lung cancer) [%]","tumor growth inhibition rate, MTT Assay [2] [%]","tumor growth inhibition rate, MTT Assay (Small Cell Lung Cancer) [%]","tumor growth inhibition rate, MTT Assay (Squamous cell carcinoma) [%]"
Arg-Gly-Asp-Gly-Gly-Gly-Gly-Pro-(D-Pyr)-(D-Cys)-Bip-Arg-Gly-Glu-Gly-Gly-Gly-Gly-Ile-Val-Arg-Arg-Ala-Asp-Arg-Ala-Ala-Val-Pro [Polypeptide III],can inhibit the content of hydroxyproline in lung fibrosis model cells,30.66,56.21,42.44 ± 11.96,65.68 ± 18.50,62.35 ± 17.56,93.25 ± 16.99,63.67 ± 11.60,93.53 ± 17.04,91.58 ± 17.95,74.83 ± 13.63,70.61 ± 12.86
Pro-(D-Pyr)-(D-Cys)-Bip-Arg-Gly-Glu-Gly-Gly-Gly-Gly-Arg-Gly-Asp-Gly-Gly-Gly-Gly-Ile-Val-Arg-Arg-Ala-Asp-Arg-Ala-Ala-Val-Pro [Polypeptide VI],can inhibit the content of hydroxyproline in lung fibrosis model cells,29.55,54.17,35.87 ± 12.71,55.50 ± 18.21,52.69 ± 14.80,78.80 ± 13.47,53.80 ± 12.33,79.04 ± 14.36,83.25 ± 17.67,63.23 ± 12.96,59.67 ± 9.56
Arg-Gly-Asp-Gly-Gly-Gly-Gly-Ile-Val-Arg-Arg-Ala-Asp-Arg-Ala-Ala-Val-Pro-Gly-Gly-Gly-Gly-Pro-(D-Pyr)-(D-Cys)-Bip-Arg-Gly-Glu [Polypeptide IV],can inhibit the content of hydroxyproline in lung fibrosis model cells,33.09,47.28,40.35 ± 16.87,62.44 ± 24.16,59.28 ± 19.64,88.65 ± 17.86,60.53 ± 16.36,88.92 ± 19.05,93.66 ± 23.44,71.14 ± 17.19,67.13 ± 12.69
